These results are taken from ChEMBL document CHEMBL5360622, “Leucettinibs, a Class of DYRK/CLK Kinase Inhibitors Inspired by the Marine Sponge Natural Product Leucettamine B” (J Med Chem, 2023).

pIC50: −log10 of the molar value.

In assay [1] the target is Casein kinase I isoform epsilon (Homo sapiens, UniProt P49674).
Assay [2] has as its target Cyclin-dependent kinase 5/CDK5 activator 1 (Homo sapiens, UniProt Q00535). In kind it is cell-based, Sf9.
Assay [3] addresses Dual specificity protein kinase CLK1 (Homo sapiens, UniProt P49759). In kind it is cell-based, Sf9.
The target in assay [4] is Dual specificity protein kinase CLK2 (Homo sapiens, UniProt P49760).
Assay [5] addresses Dual specificity protein kinase CLK3 (Homo sapiens, UniProt P49761). In kind it is cell-based, Sf9.
The target in assay [6] is Dual specificity protein kinase CLK4 (Homo sapiens, UniProt Q9HAZ1).
Assay [7] addresses T1, Dual specificity tyrosine-phosphorylation-regulated kinase 2 (Homo sapiens, UniProt Q92630).
T1 sequence (Q92630 whole entry): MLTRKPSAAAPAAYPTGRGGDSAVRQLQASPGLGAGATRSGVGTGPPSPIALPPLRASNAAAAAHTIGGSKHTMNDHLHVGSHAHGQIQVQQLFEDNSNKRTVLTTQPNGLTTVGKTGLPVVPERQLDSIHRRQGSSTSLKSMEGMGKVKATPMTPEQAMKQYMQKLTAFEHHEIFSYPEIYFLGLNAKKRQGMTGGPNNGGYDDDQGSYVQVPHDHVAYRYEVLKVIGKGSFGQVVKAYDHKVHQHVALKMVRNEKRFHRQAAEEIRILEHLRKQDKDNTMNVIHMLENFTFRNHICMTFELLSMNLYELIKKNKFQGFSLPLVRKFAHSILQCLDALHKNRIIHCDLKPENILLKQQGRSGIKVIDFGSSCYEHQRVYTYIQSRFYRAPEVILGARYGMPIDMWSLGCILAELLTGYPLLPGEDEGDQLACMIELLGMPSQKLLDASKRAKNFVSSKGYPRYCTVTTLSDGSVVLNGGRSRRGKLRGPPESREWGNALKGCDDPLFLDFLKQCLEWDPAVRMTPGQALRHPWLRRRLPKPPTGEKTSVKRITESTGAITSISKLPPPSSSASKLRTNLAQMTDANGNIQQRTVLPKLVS

Assay [8] addresses T2, Dual specificity tyrosine-phosphorylation-regulated kinase 3 (Homo sapiens, UniProt O43781).
T2 sequence (O43781 whole entry): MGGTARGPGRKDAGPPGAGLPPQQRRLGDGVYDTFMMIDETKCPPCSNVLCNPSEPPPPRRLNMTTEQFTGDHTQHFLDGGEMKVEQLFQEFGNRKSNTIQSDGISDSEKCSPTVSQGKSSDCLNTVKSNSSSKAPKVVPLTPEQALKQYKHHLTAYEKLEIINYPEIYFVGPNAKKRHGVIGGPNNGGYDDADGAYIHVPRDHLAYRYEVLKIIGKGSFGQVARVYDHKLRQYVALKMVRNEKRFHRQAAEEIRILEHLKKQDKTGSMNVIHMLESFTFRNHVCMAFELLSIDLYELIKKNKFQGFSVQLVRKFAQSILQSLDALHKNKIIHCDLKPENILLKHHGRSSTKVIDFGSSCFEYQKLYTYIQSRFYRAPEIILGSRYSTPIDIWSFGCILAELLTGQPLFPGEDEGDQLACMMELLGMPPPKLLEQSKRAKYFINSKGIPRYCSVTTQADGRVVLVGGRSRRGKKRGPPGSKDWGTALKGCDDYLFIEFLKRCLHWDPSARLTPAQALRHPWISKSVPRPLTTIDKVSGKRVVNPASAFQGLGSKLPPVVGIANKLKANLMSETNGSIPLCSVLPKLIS

Assay [9] deals with T3, Dual specificity tyrosine-phosphorylation-regulated kinase 4 (Homo sapiens, UniProt Q9NR20).
T3 sequence (Q9NR20 whole entry): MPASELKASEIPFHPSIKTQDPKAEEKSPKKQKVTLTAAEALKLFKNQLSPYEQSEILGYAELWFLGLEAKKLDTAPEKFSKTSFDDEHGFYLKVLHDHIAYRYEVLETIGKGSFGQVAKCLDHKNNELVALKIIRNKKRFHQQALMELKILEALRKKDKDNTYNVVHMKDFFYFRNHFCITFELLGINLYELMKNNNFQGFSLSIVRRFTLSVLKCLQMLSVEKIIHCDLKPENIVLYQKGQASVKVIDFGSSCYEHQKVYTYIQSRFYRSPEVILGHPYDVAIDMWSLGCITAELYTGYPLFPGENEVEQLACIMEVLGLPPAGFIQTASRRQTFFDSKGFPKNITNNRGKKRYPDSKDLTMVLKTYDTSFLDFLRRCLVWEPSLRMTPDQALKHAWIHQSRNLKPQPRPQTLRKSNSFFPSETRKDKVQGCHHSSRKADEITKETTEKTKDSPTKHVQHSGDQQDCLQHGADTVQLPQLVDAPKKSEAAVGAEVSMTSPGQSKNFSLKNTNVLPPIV

The target of assay [10] is Glycogen synthase kinase-3 beta (Homo sapiens, UniProt P49841). In kind it is cell-based, Sf9.
Chain of Glycogen synthase kinase-3 beta (P49841 whole entry): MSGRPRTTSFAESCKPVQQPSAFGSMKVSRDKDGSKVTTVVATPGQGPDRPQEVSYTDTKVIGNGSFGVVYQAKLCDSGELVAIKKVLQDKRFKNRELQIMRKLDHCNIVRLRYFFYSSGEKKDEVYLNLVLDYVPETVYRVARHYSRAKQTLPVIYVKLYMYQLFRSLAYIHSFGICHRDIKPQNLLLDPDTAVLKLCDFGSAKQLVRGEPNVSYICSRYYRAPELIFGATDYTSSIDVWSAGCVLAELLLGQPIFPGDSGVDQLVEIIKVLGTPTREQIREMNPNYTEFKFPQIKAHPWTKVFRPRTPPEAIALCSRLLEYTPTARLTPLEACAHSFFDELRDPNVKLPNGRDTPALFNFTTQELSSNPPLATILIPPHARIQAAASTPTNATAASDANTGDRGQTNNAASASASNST

Chain of Dual specificity protein kinase CLK4 (Q9HAZ1 whole entry): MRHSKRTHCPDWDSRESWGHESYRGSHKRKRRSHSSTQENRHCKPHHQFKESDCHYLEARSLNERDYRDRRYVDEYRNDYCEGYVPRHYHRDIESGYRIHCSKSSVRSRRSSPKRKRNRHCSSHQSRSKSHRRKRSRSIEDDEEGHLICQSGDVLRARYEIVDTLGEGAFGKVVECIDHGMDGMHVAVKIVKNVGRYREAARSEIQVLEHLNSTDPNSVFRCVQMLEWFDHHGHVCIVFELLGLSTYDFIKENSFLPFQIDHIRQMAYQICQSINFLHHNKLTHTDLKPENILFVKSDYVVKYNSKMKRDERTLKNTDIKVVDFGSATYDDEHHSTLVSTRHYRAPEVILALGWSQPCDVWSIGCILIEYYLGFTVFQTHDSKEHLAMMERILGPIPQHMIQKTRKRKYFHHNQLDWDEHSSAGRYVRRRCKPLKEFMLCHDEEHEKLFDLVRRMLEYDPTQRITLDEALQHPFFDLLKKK
Chain of Dual specificity protein kinase CLK2 (P49760 whole entry): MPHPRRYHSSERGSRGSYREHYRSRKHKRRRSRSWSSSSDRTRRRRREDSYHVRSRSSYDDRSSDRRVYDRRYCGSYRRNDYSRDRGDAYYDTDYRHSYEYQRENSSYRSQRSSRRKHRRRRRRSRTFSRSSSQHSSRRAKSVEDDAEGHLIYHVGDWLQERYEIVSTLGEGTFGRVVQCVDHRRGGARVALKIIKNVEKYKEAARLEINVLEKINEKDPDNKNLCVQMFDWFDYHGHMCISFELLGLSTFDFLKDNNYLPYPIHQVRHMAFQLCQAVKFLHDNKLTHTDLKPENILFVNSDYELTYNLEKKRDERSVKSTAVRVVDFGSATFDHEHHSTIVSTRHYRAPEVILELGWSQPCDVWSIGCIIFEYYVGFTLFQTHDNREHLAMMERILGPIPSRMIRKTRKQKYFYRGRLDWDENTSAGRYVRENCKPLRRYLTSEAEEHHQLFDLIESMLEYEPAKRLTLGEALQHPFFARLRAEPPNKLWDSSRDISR
Chain of Dual specificity protein kinase CLK1 (P49759 whole entry): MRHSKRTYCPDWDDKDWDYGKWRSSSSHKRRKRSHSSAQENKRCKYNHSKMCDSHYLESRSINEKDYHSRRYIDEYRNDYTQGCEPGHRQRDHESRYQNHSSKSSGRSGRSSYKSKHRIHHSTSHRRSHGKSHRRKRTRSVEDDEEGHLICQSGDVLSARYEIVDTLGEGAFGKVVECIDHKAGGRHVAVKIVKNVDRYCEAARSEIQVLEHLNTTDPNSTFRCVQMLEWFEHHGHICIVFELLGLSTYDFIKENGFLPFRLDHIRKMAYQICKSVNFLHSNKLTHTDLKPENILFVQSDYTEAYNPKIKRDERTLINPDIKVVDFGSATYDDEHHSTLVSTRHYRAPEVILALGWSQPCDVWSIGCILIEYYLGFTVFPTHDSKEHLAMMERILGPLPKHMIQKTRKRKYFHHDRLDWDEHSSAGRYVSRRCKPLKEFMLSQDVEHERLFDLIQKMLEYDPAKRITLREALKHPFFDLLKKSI
Chain of Casein kinase I isoform epsilon (P49674 whole entry, canonical isoform): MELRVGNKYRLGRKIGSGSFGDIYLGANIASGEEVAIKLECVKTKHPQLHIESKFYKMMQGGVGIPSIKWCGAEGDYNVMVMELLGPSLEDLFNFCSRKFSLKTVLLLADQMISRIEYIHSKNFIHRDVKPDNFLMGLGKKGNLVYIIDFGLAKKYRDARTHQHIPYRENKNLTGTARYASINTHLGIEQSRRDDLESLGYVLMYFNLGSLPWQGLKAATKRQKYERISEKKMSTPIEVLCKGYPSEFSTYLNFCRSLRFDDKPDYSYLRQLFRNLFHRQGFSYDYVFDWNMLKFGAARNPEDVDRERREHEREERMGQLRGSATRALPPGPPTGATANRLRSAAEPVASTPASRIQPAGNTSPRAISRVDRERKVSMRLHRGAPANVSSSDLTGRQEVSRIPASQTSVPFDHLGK
Chain of Cyclin-dependent kinase 5/CDK5 activator 1 (Q00535 whole entry): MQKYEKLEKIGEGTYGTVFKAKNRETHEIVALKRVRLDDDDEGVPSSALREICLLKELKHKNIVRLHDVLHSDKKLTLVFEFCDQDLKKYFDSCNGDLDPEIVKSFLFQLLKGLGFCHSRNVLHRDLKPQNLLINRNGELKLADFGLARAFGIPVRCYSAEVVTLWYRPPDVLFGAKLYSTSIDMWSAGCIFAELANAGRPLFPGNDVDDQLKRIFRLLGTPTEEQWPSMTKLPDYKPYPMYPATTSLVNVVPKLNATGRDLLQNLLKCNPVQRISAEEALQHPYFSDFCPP
Chain of Cyclin-dependent kinase 5/CDK5 activator 1 (Q15078 whole entry, further chain): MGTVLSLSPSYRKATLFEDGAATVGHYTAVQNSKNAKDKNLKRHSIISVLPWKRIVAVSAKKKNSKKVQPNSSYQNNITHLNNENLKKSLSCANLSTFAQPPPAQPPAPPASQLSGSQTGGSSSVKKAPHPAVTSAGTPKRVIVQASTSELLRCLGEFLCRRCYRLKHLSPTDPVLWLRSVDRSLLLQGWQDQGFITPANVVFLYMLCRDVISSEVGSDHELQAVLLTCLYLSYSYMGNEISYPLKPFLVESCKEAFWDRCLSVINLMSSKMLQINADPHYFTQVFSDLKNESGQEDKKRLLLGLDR
Chain of Dual specificity protein kinase CLK3 (P49761 whole entry): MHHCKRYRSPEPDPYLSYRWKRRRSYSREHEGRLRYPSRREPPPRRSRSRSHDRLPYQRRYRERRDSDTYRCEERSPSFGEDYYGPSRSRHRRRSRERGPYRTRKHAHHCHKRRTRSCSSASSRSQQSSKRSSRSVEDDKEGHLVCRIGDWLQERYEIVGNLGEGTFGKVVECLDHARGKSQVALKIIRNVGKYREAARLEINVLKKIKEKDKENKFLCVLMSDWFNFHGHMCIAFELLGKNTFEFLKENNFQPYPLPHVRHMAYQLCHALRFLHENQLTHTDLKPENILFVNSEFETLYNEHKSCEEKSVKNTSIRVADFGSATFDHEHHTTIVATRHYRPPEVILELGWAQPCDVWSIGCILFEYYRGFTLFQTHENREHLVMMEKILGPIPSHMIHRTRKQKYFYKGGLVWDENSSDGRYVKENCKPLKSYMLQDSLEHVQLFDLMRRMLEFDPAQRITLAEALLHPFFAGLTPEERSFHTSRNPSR

As to `Cn1ncc2cc(/C=C3\N=C(NC45CC6CC(CC(C6)C4)C5)NC3=O)ccc21`, the pIC50 was less than 5.00 in [1]; less than 5.00 in assay [2]; 6.85 in [3]; 5.40 in assay [4]; 5.65 in [5]; 6.90 in [6]. Besides, the pIC50 was 6.44 in [7], 6.51 in assay [8], 5.79 in assay [9] and less than 5.00 in assay [10].

Regarding `O=C1NC(NC2CCCCCC2)=N/C1=C\c1ccc2nnsc2c1`, the pIC50 in assay [1] is less than 5.00; in assay [2] it was less than 5.00; in assay [3] it was 6.57; in assay [4], 5.55; in assay [5], less than 5.00; in assay [6] it was 6.76. The pIC50 in [7], in [9] and in [10] was less than 5.00 in each case.

Turning to `Cn1cc2cc(/C=C3\N=C(NC4CCCCCC4)NC3=O)ccc2n1`, the pIC50 is less than 5.00 in assay [1]; less than 5.00 in assay [2]; 7.17 in assay [3]; 5.66 in assay [4]; 5.85 in assay [5]; 7.26 in [6]. Also, the pIC50 in assay [7] was 5.82; in assay [8], 5.99; in assay [9], 5.52; in assay [10], less than 5.00.

Regarding `O=C1NC(NC2CCCCCC2)=N/C1=C\c1ccc2scnc2c1`, the pIC50 in assay [1] is less than 5.00; in [2] it was less than 5.00; in assay [3] it was less than 5.00; in assay [4], less than 5.00; in [5], less than 5.00; in assay [6], 5.09. Moreover, the pIC50 in assay [7], in [8] and in [10] was less than 5.00 throughout.

As for `O=C1NC(NCc2ccccc2OC(F)(F)F)=N/C1=C\c1ccc2ncsc2c1`, the pIC50 in assay [2] was less than 5.00; in assay [3], 7.47; in [4] it was 6.91; in [5], 5.54; in assay [6], 7.43; in assay [7], less than 5.00. Further, the pIC50 in assay [8], in [9] and in assay [10] was less than 5.00 throughout.

In the case of `CCOC[C@@H](CC(C)C)NC1=N/C(=C\c2ccc3ncsc3c2)C(=O)N1`, the pIC50 was less than 5.00 in assay [1]; less than 5.00 in assay [2]; 7.89 in assay [3]; 6.96 in [4]; 6.38 in assay [5]; 8.40 in assay [6]. In addition, the figures for the pIC50 in assay [7], in [9] and in assay [10] were 6.84, 6.01 and 5.57, respectively.

Take `C[C@@H](NC1=N/C(=C\c2ccc3ncsc3c2)C(=O)N1)C1CCCCC1`: the pIC50 in assay [1] is less than 5.00; in assay [2] it was less than 5.00; in [3], 7.36; in assay [4], 6.52; in assay [5] it was 5.52; in assay [6], 7.44. Also, the pIC50 in [7] was 5.44; in assay [9], 5.22; in assay [10] it was less than 5.00.

As to `O=C1NC(NC2CCCCC2)=N/C1=C\c1ccc2ncsc2c1`, the pIC50 in assay [1] was 5.01; in assay [2] it was 5.17; in [3], 7.68; in assay [5], 6.10; in [6], 7.92; in assay [7] it was 6.20. Besides, the pIC50 in [8] was 6.32; in assay [9], 6.18; in [10], 5.15.

`O=C1NC(NC2CCCCC2)=N/C1=C\c1ccc2[nH]cnc2c1`: the pIC50 in [1] is less than 5.00; in assay [2], less than 5.00; in assay [3], 6.05; in assay [4], 5.86; in assay [5], 5.72; in assay [6], 7.43. Moreover, the pIC50 was 5.48 in assay [7], 5.73 in [9] and less than 5.00 in assay [10].

As for `CN1CC[C@](C)(NC2=N/C(=C\c3ccc4ncsc4c3)C(=O)N2)C1=O` (stereo in doubt), the pIC50 in assay [1] is less than 5.00; in assay [2], less than 5.00; in [3], 6.90; in assay [4] it was 6.35; in [5], 6.03; in assay [7], 5.77. In addition, the pIC50 is 5.83 in assay [8], 5.77 in assay [9] and less than 5.00 in [10].

With `O=C1NC(NC2CCCCC2)=N/C1=C\c1ccc2nnsc2c1`, the pIC50 in [2] is less than 5.00; in [3], 6.07; in assay [4], 5.25; in assay [5], 5.05; in assay [6], 6.41; in assay [7] it was less than 5.00. The pIC50 in assay [8], in assay [9] and in assay [10] was less than 5.00 in each case.

For the molecule `O=C1NC(Nc2ccccc2)=N/C1=C\c1ccc2ncsc2c1`, the pIC50 was less than 5.00 in [1]; less than 5.00 in assay [2]; 7.89 in assay [3]; 6.95 in [4]; 6.16 in [5]; 8.30 in assay [6]. Besides, the pIC50 was 6.15 in assay [8] and 5.65 in [10].

On to `CN1CCN(c2cnc(NC3=N/C(=C\c4ccc5ncsc5c4)C(=O)N3)cn2)CC1`, for which the pIC50 is less than 5.00 in assay [1]; less than 5.00 in [2]; 7.26 in assay [3]; 6.92 in assay [4]; 5.67 in [5]; 7.54 in assay [6]. The pIC50 in [7] is 6.10; in [9] it was 5.95; in [10] it was 5.39.

As to `CC(C)C[C@@H](CF)NC1=N/C(=C\c2ccc3ncsc3c2)C(=O)N1`, the pIC50 in assay [1] is less than 5.00; in [2] it was less than 5.00; in assay [3], 8.15; in [4], 7.48; in assay [5], 5.86; in assay [7], 6.58. Besides, the values for the pIC50 in [8], in [9] and in assay [10] were 6.64, 6.41 and 5.20, respectively.

As for `CC(C)C[C@H](COC1CC1)NC1=N/C(=C\c2ccc3ncsc3c2)C(=O)N1`, the pIC50 in assay [1] is less than 5.00; in [2], less than 5.00; in assay [3], 7.77; in [4] it was 6.92; in assay [5], 6.68; in [6], 8.30. For the same molecule, the values for the pIC50 in assay [7], in assay [9] and in assay [10] were 6.90, 5.86 and 5.44, respectively.

Turning to `CN1CCN(c2ccc(NC3=N/C(=C\c4ccc5c(c4)OCO5)C(=O)N3)cc2)CC1`, the pIC50 was 7.64 in assay [3]; 7.46 in assay [4]; 6.10 in assay [5]; 7.80 in [6]; 6.92 in assay [8]; 5.92 in assay [10].

With `O=C1NC(NC2CCCCC2)=N/C1=C\c1ccc2scnc2c1`, the pIC50 in assay [1] was less than 5.00; in assay [2], less than 5.00; in [3], less than 5.00; in assay [4] it was less than 5.00; in assay [5], less than 5.00; in assay [6], 5.15. Further, the negative-log IC50 (pIC50) in assay [7] and in assay [10] was less than 5.00 in each case.

For orientation: pIC50 means the negative decadic logarithm of the IC50, by convention in mol/L. Low readings indicate a high IC50, high ones a low IC50.
